Measurements: patent US20250387481A1, “PRE-TREATED T CELLS FOR USE AS A MEDICAMENT” (STICHTING HET NEDERLANDS KANKER INSTITUUT-ANTONI VAN …, priority 2022, published 2025)

Key:
[1] = system: human lung tumor organoids; test: Tumor organoids killing assay with autologous tumor-reactive T cells; assay type: cell-based; conditions: tumor-reactive T cells pre-treated with 10 nmol/L docetaxel
Protocol: To express luciferase in the tumor organoids, we used pLenti CMV Puro LUC (w168-1; Plasmid #17477; Addgene). Tumor-reactive PBMC were thawed in pre-warmed T cell medium and incubated for 15 minutes with 25 U/ml Benzonase. After washing, cells were re-suspended at 2−3×10^6 cells/ml in T cell medium and cultured overnight at 37° C. The day after, PBMC were incubated with (or without) 10 nmol/L docetaxel for 48 hr. To determine the sensitivity of tumor and healthy organoids to T cell-mediated killing, flatbottom non-tissue culture treated plates were coated with 5 μg/ml αCD28 and kept at 4° C. overnight prior to co-culture. Tumor organoids were previously transduced with luciferase reporter gene. Organoids were isolated from Geltrex 48 hours prior to co-culture and stimulated with 200 ng/ml IFNγ for 24 hr prior to co-culture. The next day, part of the organoids was dissociated to single cells and counted using a hemocytometer. […] At the end of the 72 hours, tumor and healthy organoids viability in the different conditions was evaluated by microscopy, taking bright-field pictures at 5 and 10× magnification. Tumor cell viability in the different conditions was also measured by luciferase reporter assay using 3 μg/mL luciferin. Luminescence was measured with a Tecan reader (1,000 ms exposure).

KB1P organoids = test: MTT measurement of KB1P organoid survival upon increasing doses of docetaxel; assay type: cell-based; conditions: Mus musculus, docetaxel for 72 h
Protocol: (§1) Breast cancer organoids were derived from K14-Cre; Brca1fl/fl; p53fl/fl mouse mammary tumors (KB1P (Kester, L., et al. Clin Cancer Res, 2022.)) and from MMTV-PyMT (Duarte, A. A., et al. Nat Methods, 2018. 15(2): p. 134-140) mouse mammary tumors. Both lines were cultured in 50 μl drops of Cultrex PathClear Reduced Growth Factor Basement Membrane Extract Type 2 (BME, Amsbio, 3533-005-02). KB1P organoids were cultured in Advanced Dulbecco's modified Eagle's medium (adDMEM/F12; Thermo Fisher Scientific. Cat. No. 12634-010) containing Hepes (10 mmol/L; Thermo Fisher Scientific, Cat. No. 15630-056), Penicillin/streptomycin (10,000 U/ml; Thermo Fisher Scientific, Cat. No. 15140-122), B27 (2% Thermo Fisher Scientific, Cat. No. 17504-044), N-acetylcysteine (1.25 mM; Sigma-Aldrich, Cat. No. A9165) and fibroblast growth factor (FGF, 12 ng/ml; Invitrogen, Cat. No. PHG0261). MMTV-PyMT organoids were cultured in DMEM/F12 GlutaMAX (Gibco, Cat. No 10565018) supplemented with 10 mmol/L Hepes (Gibco, Cat. No 15630106), Penicillin/streptomycin (10,000 U/ml; Thermo Fisher Scientific, Cat. No. 15140-122), B27 (2% Thermo Fisher Scientific, Cat. No. 17504-044) and fibroblast growth factor (FGF, 12 ng/ml; Invitrogen, Cat. No. PHG0261). […]
(§2) Following co-culture, medium was removed, and cultures were washed in PBS to remove T cells. […] Plates were read with a 565 nm wavelength.

mouse splenic T cells = test: MTT assessment of mouse splenic T cell survival following chemotherapy treatment in vitro; assay type: cell-based; conditions: 10 nmol/L, 72 h
Protocol: (§3) About 100,000 T cells were seeded per well in a 96-well plate and treated with
(§4) increasing doses of docetaxel, paclitaxel, or carboplatin for 72 h. Next, T cells were incubated with Thiazolyl Blue Tetrazolium Bromide (0.5 mg/ml, Sigma Aldrich, Cat. No. 298-93-1) for 3 hr in the dark at 37 degrees Celsius. Subsequently, T cells were incubated for 16 h in the dark in a lysis buffer (40% dimerhylofrmamide, 0.55 mol/L sodium dodecyl sulfate, 2% acetic acid, 8.4 mmol/L HCl in MilliQ water). Plates were read with a 565 nm wavelength.

MMTV-PyMT organoids = test: MTT measurement of MMTV-PyMT organoid survival upon increasing doses of docetaxel; assay type: cell-based; conditions: Mus musculus, docetaxel for 72 h
Protocol: as §1, §2

Jurkat T cells = test: MTT assessment of Jurkat T cell survival; assay type: cell-based, human; conditions: 5 nmol/L, 72 h
Protocol: Preparation of Jurkat T cells: Jurkat T cells were cultured in Roswell Park Memorial Institute (RPMI) 1640 Medium (Thermo Fisher Scientific, Cat. No. 21875034) containing FBS (10%, Thermo Fisher Scientific, Cat. No. A4766801), Penicillin/streptomycin (10,000 U/ml; Thermo Fisher Scientific, Cat. No. 15140-122), and Ultraglutamine (2 mmol/L, Lonza, Cat. No. BE17-605E/U1). Jurkat T cells were kept in 20% O2, 5% CO2 and at 37 degrees Celsius. Jurkat T cells were treated for 72 h with PBS or with docetaxel (docetaxel 5 nmol/L). Subsequently, Jurkat T cells were collected and washed 3 times in PBS to remove residual chemotherapy.
as §3, §4

`CC(=O)O[C@@]12CO[C@@H]1C[C@H](O)[C@@]1(C)C(=O)[C@H](O)C3=C(C)[C@@H](OC(=O)[C@H](O)[C@@H](NC(=O)OC(C)(C)C)c4ccccc4)C[C@@](O)([C@@H](OC(=O)c4ccccc4)[C@H]21)C3(C)C` [docetaxel] was tested, and the “anti-tumor capacity against tumor organoids (organoid viability, luciferase)” value [1] was “increased their anti-tumor capacity”, the IC50 (KB1P organoids) was 90.5 nM and the “killing of T cells (MTT)” value (mouse splenic T cells) was “did not induce significant killing of T cells”. For the same compound, the IC50 (MMTV-PyMT organoids) was 130 nM and the “Jurkat T cells survival (MTT)” value (Jurkat T cells) was “did not significantly reduce Jurkat T cells survival”.
